Reference: patent US6465527B1, “Iodinated hydrocarbon pesticide” (priority 1999, dated 2002)

Experiments:
Format in all cases: in vivo
[1] = system: 'Brim' soybean [Glycine max]; experiment: Soybean growth in treated soil (Experiments 1 and 2)
Description: Additionally, the nematicidal properties of iodinated hydrocarbons were investigated in greenhouse experiments with field soil infested with Meloidogyne arenaria and Heterodera Glycines. Chemicals were added directly to infested solid at rates <100 mg/Kg soil. Treated soil was kept moist (approximately 60 percent field capacity) and uncovered for 7-10 days when samples were collected, and the pots were planted with ‘Brim’ soybean, Glycine max. […] 1,2-diiodoethane (C2), 1,3-diiodopropane (C3), 1,4-diiodobutane (C4), 1,5-diiodopentane (C5), 1,6-diiodohexane (C6), and […] were applied to soil rates of 2.5, 5.0, 7.5, and 10 mg/Kg soil. All rates of C2 and C8 were ineffective in reducing M. arenaria juvenile (J2) populations in preplant samples. This was also true for C2 and J2 populations of H. glycines; however, […] rates ≧5.0 mg suppressed J2 populations of H. glycines. […] H. glycines J2 numbers in final soil samples were generally inversely related to rates for C3-C8. […] Applications of C3-C6 to soil increased shoot weights in a manner directly related to dosages but only in a curvilinear pattern.
In this experiment, the nematicidal properties of various diiodinated hydrocarbons were compared. The nematicidal properties of diiodinated C2-C8 normal hydrocarbons was assessed in a greenhouse experiment with field soil infested with Meloidogyne arenaria [Ma] and Heterodera glycines [Hg]. 1,2-diiodoethane [C2], 1,3-diiodopropane [C3], 1,4-diiodobutane [C4], 1.5-diiodopentane [C5], 1,6-diiodohexane [C6] and 1,8-diiodooctane [C8] were applied to soil at rates of 2.5, 5.0, 7.5, and 10.0 mgs/kg soil. The potted soil was kept moist in a greenhouse for 10 days when preplant samples were collected for analysis, and the pots were planted with ‘Brim’ soybean [Glycine max]. After 7 weeks of growth, the plants were removed and final soil samples taken. Data was collected on weights of fresh roots and shoots, root galling by Ma, and numbers of nematodes in soil and roots. All rates of C2 and C8 were ineffective in reducing Ma juvenile [J2] populations in the preplant samples. This was also true for C2 and J2 populations of Hg; however, C8 rates ≧5.0 mg suppressed J2 populations of Hg. […] Hg J2 numbers in final soil samples were generally inversely related to rates for C3-C8. This pattern of suppression in J2 numbers was also applicable to Ma in the final soil samples but only for C3-C6. […] Applications of C3-C6 to soil increased shoot weights in a manner directly related to dosages but non-linear in pattern.

[2] = system: reniform nematode [Rotylenchulus reniformis]; experiment: Greenhouse nematicide test in cotton field soil, covered and uncovered pots (Experiment 6, FIGS. 1-4)
Excerpt: FIGS. 2 and 3 illustrate the effectiveness of the diiodoethane and diiodopropane in eliminating the nematode (Rotylenchulus reniformis) from a soil sample. The “x” axis on the top row illustrates the quantity of iodinated hydrocarbon in milligrams per kilogram of soil. The next two rows below the “x” axis indicate the number of nematodes per 100 milliliters of soil, which is also indicated on the “y” axis. In FIG. 2, 1,2-diiodoethane was applied to the soil both in a covered state and an uncovered state. […] This is believed to be so because of the volatility of 1,2 diiodoethane, wherein the cover slows down the rate at which the compound evaporates into the atmosphere.
In this experiment, the pesticidal and herbicidal properties of volatile, low molecular weight, iodinated hydrocarbons were investigated. The relative nematicidal efficacy of iodomethane [C1], 1,2-diiodoethane [C2], 1,3-diiodopropane [C3] and 1,4-diiodobutane [C4] was studied in greenhouse experiments with soil from a cotton field infested with the reniform nematode [Rotylenchulus reniformis]. The chemicals were obtained from Aldrich, Milwaukee, U.S.A. Emulsifiable concentrates of the compounds were prepared by dilution in acetone containing an emulsogen.
For each chemical, an aqueous emulsion with 0.2% [w/w] of the compound was prepared and was applied to soil at rates of 2, 4, 6, 8, 10, and 12 mgs a.i./Kg soil. The treated soil was mixed and transferred to 1L capacity 10-cm diameter cylindrical pots. Pots with untreated soil [control] and with treated soil were placed on a greenhouse bench in a randomized complete block design. Each treatment was represented by 14 replications [pots], one half of which were left uncovered, and the other 7 were covered with polyethylene plastic bags [approx. 1 mil thickness] retained with a rubber around the pots. Soil samples for nematological analysis [salad bowl incubation technique] were collected 7-10 days after application of the materials. […] In covered pots, applications of the material were particularly effective resulting in 100% kill with the 10 and 12 mg rates. All dosages of C3 and C4 eliminated the nematode in covered pots. […] In a greenhouse experiment of similar design to the nematicide experiments, the C3 and C4 emulsions were applied at rates of 2-20 mgs a.i./Kg soil to a soil infested with crabgrass [Digitaria sanguinalis], purple nutsedge [Cyperus rotundus], Jimson weed [Datura stramonium] and a variety of other weed species. All pots were covered, and the number of weeds were counted 7, 14 and 30 days after application of the chemicals.

[3] = system: Meloidogyne arenaria, Pratylenchus brachyurus, and Paratrichodorus christiei; experiment: Nematodes in roots and soils at end of Experiment 5 (all nematodes); details: after eight weeks of growth
Description: In this experiment, the nematotoxic properties of ethylene diiodide were compared to that of methyl iodide. The nematicidal efficacies of iodomethane [IM] and ethylene diiodide [EDI] were compared in a greenhouse experiment using field soil infested with Meloidogyne arenaria, Pratylenchus brachyurus, and Paratrichodorus christiei.
Each compound was added to soil at rates of 100, 200, 300 and 400 mg s/kg of soil. The soil was potted and kept moist for two weeks when it was planted with ‘Brim’ soybean after taking samples for nematological analyses. After eight weeks of growth, the plants were removed from the pots and soil samples taken. Data was collected on weights of fresh roots and shoots, general appearance of roots [root condition index] and root gall formation by M. arenaria. All EDI rates eliminated M. arenaria juveniles [J2] and populations of the other nematodes in the preplant samples; IM reduced J2 numbers by 50-70%, eliminated P. christiei with the 400 mg rate, but had no effect on P. brachyurus. […] The general appearance of roots was improved by EDI at rates ≦300 mg, but MI had no effect on the variable. […] M. arenaria J2 populations in roots were reduced by 60-70% by MI treatments, but the compound had no effect on root populations of P. brachyurus. MI had no effect on J2 populations in the final soil samples, although it suppressed P. christiei, by 50-70%.

Question: What does the source list for `ICCI` [1,2-diiodoethane]?
Answer: Shoot weights of soybean ([1]; 2.5 mg rate): increased shoot weights slightly; Shoot weights of soybean ([1]; rates higher than 2.5 mg): no significant effect; Numbers of the nematode in soil in response to rates ([2]; 2-12 mgs a.i./Kg soil): declined linearly; Kill of the nematode ([2]; covered pots, 10 and 12 mg rates): 100%; Effectiveness covered versus uncovered at eliminating the nematodes (FIG. 2) ([2]; covered state and uncovered state): covered samples were more effective; Nematodes in roots and soils at end of experiment [3]: no nematodes
